The assay deals with HiBiT-GPCRs. The assay is described as follows: NanoBRET saturation ligand-engagement assay in HEK293. It is filed as binding, human. The text has this: Metabotropic GRM1 glutamate receptor, metabotropic 1 glutamate GRM2 glutamate receptor, metabotropic 2
GRM3 glutamate receptor, metabotropic 3
GRM4 glutamate receptor, metabotropic 4
GRM5 glutamate receptor, metabotropic 5
GRM7 glutamate receptor, metabotropic 7
GRM8 glutamate receptor, metabotropic 8
Glucagon ADCYAP1R1 adenylate cyclase activating polypeptide 1
(pituitary) receptor type I
Lutropin- LHCGR luteinizing hormone/choriogonadotropin choriogonadotropin receptor
Cysteinyl leukotriene CYSLTR1 cysteinyl leukotriene receptor 1
CYSLTR2 cysteinyl leukotriene receptor 2
Cell culture and transfection
HEK293 cells were obtained from American Type Culture Collection (ATCC) and cultured at 37 °C/5% CO2 in Dulbecco's Modified Eagle Medium (DMEM) (Gibco) supplemented with 10% fetal bovine serum (Seradigm) and 100 units/mL of penicillin-streptomycin (Gibco). Transfections were carried out using Viafect (Promega) at a 1:3 DNA/transfection reagent ratio. Generally, DNA encoding HiBiT-GPCR fusion was diluted 1:100 in promoterless carrier DNA. […]
in the presence of 30 μM competing unmodified compound for 90 min at room temperature. […] Filtered luminescence was then measured using GloMax Discover microplate reader (Promega) equipped with a 450-nm (8-nm band pass) filter (donor) and a 600-nm long pass filter (acceptor). BRET was calculated by dividing the acceptor emission by the donor emission. […]
(In general: BRET reads energy transfer from a luciferase to a nearby fluorophore.)

Turning to `O=C(CCOCCOCCOCCOCCNC(=O)CCc1ccc2n1[B-](F)(F)[N+]1=C(c3ccc[nH]3)C=CC1=C2)NCCCN1CCN(C2=Nc3cc(Cl)ccc3Nc3ccccc32)CC1` [Clozapine-a-2-NB590], the Concentration-dependent binding result (ADRA2A and HTR1D, competing Clozapine (30 μM)) is listed as “specific but suffered from high background”. Besides, where the note is “range over 17 of the 19 GPCRs, background corrected with competing Clozapine (30 μM), read-out: EC50 values (concentration-dependent tracer binding)”, the EC50 is 1 to 600 nM.

Values taken from publication PMC8151276, “An Integrated Approach toward NanoBRET Tracers for Analysis of GPCR Ligand Engagement” (Molecules, 2021).
